Results from US4486445A, “Justicidin insecticidal and antiviral compounds” (E. I. Du Pont de Nemours and Company, priority 1983, dated 1984).
In brackets after ≈: the same amount, converted by molar mass.

Legend:
in vitro = conditions: human, diploid fibroblast cells
Aedes egypti larvae [1] = assay: insecticidal activity against larvae of A. egypti in water; assay type: in vivo; conditions: lower concentrations
[2] = in vitro toxicity in MDCK cells; assay type: cell-based, Canine; conditions: dog
Protocol: In vitro toxicity studies of natural Justicidin P were conducted using Madin-Darby Canine Kidney (MDCK) cells and test concentrations ranging between 0.01 and 0.56 μg/ml. In these tests, Justicidin P was suspended in MEM, diluted, and suspended in a purified agar solution. Duplicate plates containing MDCK cell layers were washed twice with HBSS, overlayed with the test compound-agar solutions, and incubated at 34° C., 5% CO2 for 72 hours. At the conclusion of the incubation period, cell layers were stained with 1% crystal violet, rinsed with tap water, dried and visually inspected to determine toxicity.

Herpes Type 1-strain VR3 = assay: plaque formation inhibition, Herpes Type 1 in HeLa cells; assay type: cell-based
[3] = test system: southern army worm (SAW) Spodoptera eridania; assay: spray applied to SAW; assay type: in vivo
Protocol: When a spray containing 2.0 mg/ml purified Justicidin P in water was applied to SAW, 85% feeding inhibition but 0% kill was observed.

A/JAX inbred mice = assay: in vivo oral toxicity in A/JAX inbred mice; conditions: orally, 200 and 100 mg/kg
Protocol: (§1) In vivo toxicity studies of natural and synthetic Justicidin P produced mixed results. […] However, natural and synthetic Justicidin P were toxic to A/JAX inbred mice when administered orally at dosages of 200 and 100 mg/kg.

[4] = test system: Human Rhino Virus (HRV-2); assay: inhibition of HRV-2 in HeLa cells; assay type: cell-based, Human rhinovirus HRV-2; conditions: Rhinovirus A, 200 PFU
Aedes egypti larvae [5] = assay: insecticidal activity against larvae of A. egypti in water; assay type: in vivo; conditions: Aedes; larvae of A. egypti in H2O; read-out: EC50 (effective kill concentration for 50% of the experimental larvae)
Protocol: (§2) The insecticidal activity of the crude acetone/water extracts of Justicia extensa, prepared according to the isolation procedure described previously, was tested against laboratory cultures of the mosquito species Aedes egypti (Linnaeus) and southern army worm (SAW) Spodoptera eridania (Cramer). Extracts of leaves, branches and roots were employed in each test.
In tests against larvae of A. egypti, 10 mg of the crude plant extract was thoroughly dispersed in 20 ml of water in a test tube to which 10 first instar larvae were added.

HeLa cells = assay type: cell-based; conditions: 64 μg/ml to 1 μg/ml
Spodoptera eridania = assay: insecticidal and feeding inhibition test against southern army worm in pinto bean diet; assay type: in vivo
Protocol: as §2

IMR-90 cells = conditions: all concentrations tested
[6] = test system: Herpes Type 2-Alabama strain; assay: plaque formation inhibition, Herpes Type 2 in HeLa cells; assay type: cell-based
out-bred mice = assay: in vivo oral toxicity in out-bred mice; conditions: orally, up to about 324 mg/kg
Protocol: as §1

## COc1cc2c(OC)c3c(c(-c4ccc5c(c4)OCO5)c2cc1OC)C(=O)OC3OC (single isomer, unassigned) [Justicidin P (natural)]
In vitro
  selectivity ratio: 10 to 60
Aedes egypti larvae [1]
  insecticidal activity of purified fractions: insecticidal component of the J. extensa extracts
[2]; 0.01 μg/ml
  cytotoxicity at 72 h: 1%
[2]; 0.02 μg/ml
  cytotoxicity at 72 h: 5%
[2]; 0.05 μg/ml
  cytotoxicity at 72 h: 15%
[2]; 0.11 μg/ml
  cytotoxicity at 72 h: 30%
[2]; 0.25 μg/ml
  cytotoxicity at 72 h: 40%
[2]; 0.56 μg/ml
  cytotoxicity at 72 h: 70%
Herpes Type 1-strain VR3; 0.004 μg/ml, HSV-1, HeLa
  Mean Plaques/Plate: 134
Herpes Type 1-strain VR3; 0.016 μg/ml, HSV-1, HeLa
  Mean Plaques/Plate: 117
Herpes Type 1-strain VR3; 0.063 μg/ml, HSV-1, HeLa
  Mean Plaques/Plate: 122
Herpes Type 1-strain VR3; 0.25 μg/ml, HSV-1, HeLa
  Mean Plaques/Plate: 87
Herpes Type 1-strain VR3; HeLa cells
  antiviral activity against Herpes Type 1: demonstrated antiviral activity
Herpes Type 1-strain VR3; Human alphaherpesvirus 1, 0.004 μg/ml, HSV-1, HeLa
  inhibition at 0.004 µg/mL: 0%
Herpes Type 1-strain VR3; Human alphaherpesvirus 1, 0.016 μg/ml, HSV-1, HeLa
  inhibition at 0.016 µg/mL: 6%
Herpes Type 1-strain VR3; Human alphaherpesvirus 1, 0.063 μg/ml, HSV-1, HeLa
  inhibition at 0.063 µg/mL: 2%
Herpes Type 1-strain VR3; Human alphaherpesvirus 1, 0.25 μg/ml, HSV-1, HeLa
  inhibition at 0.25 µg/mL: 31%
[3]; Spodoptera eridania, topical, read-out: kill
  mortality at 2000 µg/mL: 0%
[3]; spray containing 2.0 mg/ml in water
  feeding inhibition: 85%
A/JAX inbred mice
  in vivo toxicity: toxic
[4]; HRV2, 0.016 μg/ml
  inhibition at 0.016 µg/mL: 107%
[4]; HRV2, 0.08 μg/ml
  inhibition at 0.08 µg/mL: ≥ 100%
[4]; HRV2, 0.4 μg/ml
  inhibition at 0.4 µg/mL: ≥ 100%
[4]; HRV2, 2 μg/ml
  inhibition at 2 µg/mL: ≥ 100%
[4]; HRV2, 10 μg/ml
  inhibition at 10 µg/mL: 64%
Aedes egypti larvae [5]
  LC50: 0.05 mg/L (≈ 0.118 µM)
HeLa cells
  cytotoxicity: severe cytotoxicity
Spodoptera eridania; 1 μg/gm in pinto bean diet
  feeding inhibition: 62%
Spodoptera eridania; 10 μg/gm in pinto bean diet
  feeding inhibition: 77%
Spodoptera eridania; 100 μg/gm in pinto bean diet
  feeding inhibition: 85%
Spodoptera eridania; Spodoptera eridania, 1 μg/gm in pinto bean diet, read-out: kill
  mortality at 1 µg/g: 20%
Spodoptera eridania; Spodoptera eridania, 10 μg/gm in pinto bean diet, read-out: kill
  mortality at 10 µg/g: 10%
Spodoptera eridania; Spodoptera eridania, 100 μg/gm in pinto bean diet, read-out: kill
  mortality at 100 µg/g: 60%
IMR-90 cells
  cytotoxicity: exhibited cytotoxicity at all concentrations tested
[6]; 0.004 μg/ml, HSV-2, HeLa
  Mean Plaques/Plate: 136
[6]; 0.016 μg/ml, HSV-2, HeLa
  Mean Plaques/Plate: 114
[6]; 0.063 μg/ml, HSV-2, HeLa
  Mean Plaques/Plate: 60
[6]; 0.25 μg/ml, HSV-2, HeLa
  Mean Plaques/Plate: 7
[6]; HeLa cells
  antiviral activity against Herpes Type 2: demonstrated antiviral activity
[6]; Human alphaherpesvirus 2, 0.004 μg/ml, HSV-2, HeLa
  inhibition at 0.004 µg/mL: 14%
[6]; Human alphaherpesvirus 2, 0.016 μg/ml, HSV-2, HeLa
  inhibition at 0.016 µg/mL: 28%
[6]; Human alphaherpesvirus 2, 0.063 μg/ml, HSV-2, HeLa
  inhibition at 0.063 µg/mL: 62%
[6]; Human alphaherpesvirus 2, 0.25 μg/ml, HSV-2, HeLa
  inhibition at 0.25 µg/mL: 96%
out-bred mice
  in vivo toxicity: no toxicity was observed
